In ChEMBL document CHEMBL4024800, “α-Amino-β-carboxymuconate-ε-semialdehyde Decarboxylase (ACMSD) Inhibitors as Novel Modulators of De Novo Nicotinamide Adenine Dinucleotide (NAD+) Biosynthesis” (J Med Chem, 2018):

Assay: Ratio of AUClast in mouse liver to blood at 5 mg/kg, po measured up to 8 hrs post dose

- Kp at 8 h: 1.5
SMILES: N#Cc1c(-c2cccs2)nc(SCc2cccc(CC(=O)O)c2)[nH]c1=O
